The record followed here is ChEMBL document CHEMBL5678810.

Active and inactive are the calls of the source. The rule behind the calls is not given here.

In general, inhibition refers to the change of the read-out against control, counted positive when it falls. A word on the residual activity: it is the signal under treatment as a percentage of the control signal. The low end stands for a large loss of activity, the high end for a small loss of activity.

The target in assay [1] is Ribosomal protein S6 kinase alpha-4 (Homo sapiens) (UniProt O75676). Kind of assay: Inhibition of T7 bacteriophage fused human C-terminal RPS6KA4 Kinase domain-2 at 10 uM by KINOMEscan analysis relative to control.
The target of assay [2] is cAMP-dependent protein kinase catalytic subunit beta (Homo sapiens) (UniProt P22694). Kind of assay: Inhibition of T7 bacteriophage fused human PKAC-beta at 10 uM by KINOMEscan analysis relative to control.
Assay [3] relates to Epidermal growth factor receptor (Homo sapiens), P00533 [UNDEFINED MUTATION]. The experiment in a line: Inhibition of T7 bacteriophage fused human EGFR E746/A750del mutant at 10 uM by KINOMEscan analysis relative to control; values are per cent of control.
Assay [4] has as its target Death-associated protein kinase 1 (Homo sapiens) (UniProt P53355). Kind of assay: Inhibition of T7 bacteriophage fused human DAPK1 at 10 uM by KINOMEscan analysis relative to control; values are per cent of control.
In assay [5] the target is Casein kinase I isoform alpha (Homo sapiens) (UniProt P48729). Kind of assay: Inhibition of T7 bacteriophage fused human CSNK1A1 at 10 uM by KINOMEscan analysis relative to control.
The target in assay [6] is Dual specificity tyrosine-phosphorylation-regulated kinase 1A (Homo sapiens) (UniProt Q13627). Kind of assay: Inhibition of T7 bacteriophage fused human DYRK1A at 10 uM by KINOMEscan analysis relative to control; values are per cent of control.
The target in assay [7] is Calcium/calmodulin-dependent protein kinase type 1 (Homo sapiens) (UniProt Q14012). Kind of assay: Inhibition of T7 bacteriophage fused human CAMK1 at 10 uM by KINOMEscan analysis relative to control.
For assay [8], the system named is Phosphatidylinositol 4,5-bisphosphate 3-kinase catalytic subunit alpha isoform (Homo sapiens), P42336 [I800L]. The experiment in a line: Inhibition of T7 bacteriophage fused human PIK3CA I800L mutant at 10 uM by KINOMEscan analysis relative to control.
The subject of assay [9] is Mast/stem cell growth factor receptor Kit (Homo sapiens), P10721 [V559D,T670I]. The experiment in a line: Inhibition of T7 bacteriophage fused human KIT V559D/T670I mutant at 10 uM by KINOMEscan analysis relative to control; values are per cent of control.
In assay [10] the target is Casein kinase I isoform gamma-1 (Homo sapiens) (UniProt Q9HCP0). The experiment in a line: Inhibition of T7 bacteriophage fused human CSNK1G1 at 10 uM by KINOMEscan analysis relative to control.
The target in assay [11] is Receptor-type tyrosine-protein kinase FLT3 (Homo sapiens) (UniProt P36888). Kind of assay: Inhibition of T7 bacteriophage fused human FLT3 at 10 uM by KINOMEscan analysis relative to control.
The target of assay [12] is Serine/threonine-protein kinase RIO3 (Homo sapiens) (UniProt O14730). The experiment in a line: Inhibition of T7 bacteriophage fused human RIOK3 at 10 uM by KINOMEscan analysis relative to control.
In assay [13] the target is NUAK family SNF1-like kinase 1 (Homo sapiens) (UniProt O60285). Kind of assay: Inhibition of T7 bacteriophage fused human ARK5 at 10 uM by KINOMEscan analysis relative to control.
The test system of assay [14] is Epidermal growth factor receptor (Homo sapiens), P00533 [L861Q]. Kind of assay: Inhibition of T7 bacteriophage fused human EGFR L861Q mutant at 10 uM by KINOMEscan analysis relative to control.
Assay [15] relates to Mast/stem cell growth factor receptor Kit (Homo sapiens), P10721 [A829P]. The experiment in a line: Inhibition of T7 bacteriophage fused human KIT A829P mutant at 10 uM by KINOMEscan analysis relative to control.
Assay [16] concerns the target Citron Rho-interacting kinase (Homo sapiens) (UniProt O14578). Kind of assay: Inhibition of T7 bacteriophage fused human CIT at 10 uM by KINOMEscan analysis relative to control; values are per cent of control.
Assay [17] addresses Phosphatidylinositol 4,5-bisphosphate 3-kinase catalytic subunit gamma isoform (Homo sapiens) (UniProt P48736). The experiment in a line: Inhibition of T7 bacteriophage fused human PIK3CG at 10 uM by KINOMEscan analysis relative to control.
Assay [18] concerns the target MAP kinase-activated protein kinase 2 (Homo sapiens) (UniProt P49137). Kind of assay: Inhibition of T7 bacteriophage fused human MAPKAPK2 at 10 uM by KINOMEscan analysis relative to control.
Assay [19] has as its target Cyclin-dependent kinase 18 (Homo sapiens) (UniProt Q07002). The experiment in a line: Inhibition of T7 bacteriophage fused human PCTK3 at 10 uM by KINOMEscan analysis relative to control.
Assay [20] has as its target Mitogen-activated protein kinase 15 (Homo sapiens) (UniProt Q8TD08). Kind of assay: Inhibition of T7 bacteriophage fused human ERK8 at 10 uM by KINOMEscan analysis relative to control.
For assay [21], the target named is G protein-coupled receptor kinase 4 (Homo sapiens) (UniProt P32298). Kind of assay: Inhibition of T7 bacteriophage fused human GRK4 at 10 uM by KINOMEscan analysis relative to control; values are per cent of control.
Assay [22] has as its target Activin receptor type-1B (Homo sapiens) (UniProt P36896). The experiment in a line: Inhibition of T7 bacteriophage fused human ACVR1B at 10 uM by KINOMEscan analysis relative to control.
In assay [23] the target is Serine/threonine-protein kinase Nek1 (Homo sapiens) (UniProt Q96PY6). Kind of assay: Inhibition of T7 bacteriophage fused human NEK1 at 10 uM by KINOMEscan analysis relative to control; values are per cent of control.
The test system of assay [24] is Tyrosine-protein kinase ABL1 (Homo sapiens), P00519 [Y253F]. Kind of assay: Inhibition of T7 bacteriophage fused human phosphorylated ABL1 Y253F mutant at 10 uM by KINOMEscan analysis relative to control.
Assay [25] concerns the target Uncharacterized serine/threonine-protein kinase SBK3 (Homo sapiens) (UniProt P0C264). The experiment in a line: Inhibition of T7 bacteriophage fused human SgK110 at 10 uM by KINOMEscan analysis relative to control.
Assay [26] addresses Homeodomain-interacting protein kinase 4 (Homo sapiens) (UniProt Q8NE63). Kind of assay: Inhibition of T7 bacteriophage fused human HIPK4 at 10 uM by KINOMEscan analysis relative to control.
The target in assay [27] is Cyclin-dependent kinase 5 (Homo sapiens) (UniProt Q00535). Kind of assay: Inhibition of T7 bacteriophage fused human CDK5 at 10 uM by KINOMEscan analysis relative to control.
The target of assay [28] is Cyclin-G-associated kinase (Homo sapiens) (UniProt O14976). Kind of assay: Inhibition of T7 bacteriophage fused human GAK at 10 uM by KINOMEscan analysis relative to control; values are per cent of control.
For assay [29], the target named is Leucine-rich repeat serine/threonine-protein kinase 2 (Homo sapiens) (UniProt Q5S007). The experiment in a line: Inhibition of LRRK2 phosphorylation at Ser935 residue in EBV immortalized human derived lymphoblastoid cells at 0.01 to 3 uM incubated for 90 mins by immunoblot analysis. The conditions noted are these: Lymphoblastoid cell, dose 0.01-3 µM. The class given is cell-based. (In western blotting, separated proteins are transferred to a membrane and probed.)
Chain of Leucine-rich repeat serine/threonine-protein kinase 2 (Homo sapiens) (Q5S007 whole entry): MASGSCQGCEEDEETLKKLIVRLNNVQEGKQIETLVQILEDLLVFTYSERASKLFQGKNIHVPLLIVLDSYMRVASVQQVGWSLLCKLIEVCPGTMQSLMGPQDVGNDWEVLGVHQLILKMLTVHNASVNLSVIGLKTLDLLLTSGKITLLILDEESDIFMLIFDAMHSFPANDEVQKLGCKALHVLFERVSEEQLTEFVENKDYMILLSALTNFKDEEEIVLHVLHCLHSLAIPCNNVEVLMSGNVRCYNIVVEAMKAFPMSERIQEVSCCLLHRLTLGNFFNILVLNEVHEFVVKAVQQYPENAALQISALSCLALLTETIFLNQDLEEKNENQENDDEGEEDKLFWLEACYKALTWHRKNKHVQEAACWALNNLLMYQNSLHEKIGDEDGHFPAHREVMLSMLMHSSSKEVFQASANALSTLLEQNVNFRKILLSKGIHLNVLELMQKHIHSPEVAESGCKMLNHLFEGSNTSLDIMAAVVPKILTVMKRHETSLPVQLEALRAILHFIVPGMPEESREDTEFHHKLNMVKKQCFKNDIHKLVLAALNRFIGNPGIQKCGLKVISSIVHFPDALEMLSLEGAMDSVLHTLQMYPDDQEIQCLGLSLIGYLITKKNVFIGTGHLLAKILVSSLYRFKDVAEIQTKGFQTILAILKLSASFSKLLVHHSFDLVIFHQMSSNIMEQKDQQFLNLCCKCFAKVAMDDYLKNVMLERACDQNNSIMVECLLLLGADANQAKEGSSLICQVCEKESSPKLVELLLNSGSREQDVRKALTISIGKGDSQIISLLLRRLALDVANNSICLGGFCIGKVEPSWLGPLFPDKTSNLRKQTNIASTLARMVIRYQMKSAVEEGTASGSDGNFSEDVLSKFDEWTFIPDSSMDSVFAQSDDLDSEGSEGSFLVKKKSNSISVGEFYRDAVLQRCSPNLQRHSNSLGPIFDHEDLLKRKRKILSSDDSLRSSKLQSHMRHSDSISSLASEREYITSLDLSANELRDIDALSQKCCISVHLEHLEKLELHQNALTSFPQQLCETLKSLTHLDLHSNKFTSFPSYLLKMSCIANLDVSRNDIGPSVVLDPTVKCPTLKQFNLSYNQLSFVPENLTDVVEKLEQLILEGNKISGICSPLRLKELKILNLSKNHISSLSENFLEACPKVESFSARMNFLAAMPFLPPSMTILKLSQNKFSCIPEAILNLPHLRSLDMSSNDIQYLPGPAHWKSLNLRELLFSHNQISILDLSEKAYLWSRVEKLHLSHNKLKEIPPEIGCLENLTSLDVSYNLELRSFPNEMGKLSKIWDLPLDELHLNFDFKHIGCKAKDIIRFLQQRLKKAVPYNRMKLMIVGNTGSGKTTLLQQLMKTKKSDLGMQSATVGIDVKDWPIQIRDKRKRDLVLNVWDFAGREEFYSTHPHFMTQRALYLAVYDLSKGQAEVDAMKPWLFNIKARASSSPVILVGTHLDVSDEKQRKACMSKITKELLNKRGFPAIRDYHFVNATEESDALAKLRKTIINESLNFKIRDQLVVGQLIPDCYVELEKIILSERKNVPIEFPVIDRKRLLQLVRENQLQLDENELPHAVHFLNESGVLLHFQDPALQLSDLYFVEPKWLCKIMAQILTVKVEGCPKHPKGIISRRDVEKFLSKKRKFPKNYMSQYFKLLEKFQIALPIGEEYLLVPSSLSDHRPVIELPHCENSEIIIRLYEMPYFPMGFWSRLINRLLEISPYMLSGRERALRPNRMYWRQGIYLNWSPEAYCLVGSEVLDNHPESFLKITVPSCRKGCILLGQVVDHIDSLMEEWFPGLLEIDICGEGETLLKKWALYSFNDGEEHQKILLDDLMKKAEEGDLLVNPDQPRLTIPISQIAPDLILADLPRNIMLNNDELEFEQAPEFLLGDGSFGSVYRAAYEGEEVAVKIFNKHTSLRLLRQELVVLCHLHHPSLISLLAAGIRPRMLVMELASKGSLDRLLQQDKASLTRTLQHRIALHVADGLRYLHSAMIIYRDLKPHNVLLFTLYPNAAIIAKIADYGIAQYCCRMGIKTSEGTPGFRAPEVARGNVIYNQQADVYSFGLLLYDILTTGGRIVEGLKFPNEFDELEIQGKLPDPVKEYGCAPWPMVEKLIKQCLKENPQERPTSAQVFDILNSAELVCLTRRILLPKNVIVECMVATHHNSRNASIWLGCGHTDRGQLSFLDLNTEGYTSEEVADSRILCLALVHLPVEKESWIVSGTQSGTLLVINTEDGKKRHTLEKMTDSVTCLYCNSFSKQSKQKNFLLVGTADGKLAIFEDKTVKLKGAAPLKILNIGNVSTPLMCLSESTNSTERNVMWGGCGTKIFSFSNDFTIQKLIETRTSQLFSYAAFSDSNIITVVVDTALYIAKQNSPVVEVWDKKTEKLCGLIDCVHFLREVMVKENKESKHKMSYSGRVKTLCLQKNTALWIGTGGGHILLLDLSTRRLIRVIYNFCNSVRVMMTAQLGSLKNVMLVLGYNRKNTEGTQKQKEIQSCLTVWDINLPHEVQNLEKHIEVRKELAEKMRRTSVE

Chain of G protein-coupled receptor kinase 4 (Homo sapiens) (P32298 whole entry, looked up, the tested form may be a part): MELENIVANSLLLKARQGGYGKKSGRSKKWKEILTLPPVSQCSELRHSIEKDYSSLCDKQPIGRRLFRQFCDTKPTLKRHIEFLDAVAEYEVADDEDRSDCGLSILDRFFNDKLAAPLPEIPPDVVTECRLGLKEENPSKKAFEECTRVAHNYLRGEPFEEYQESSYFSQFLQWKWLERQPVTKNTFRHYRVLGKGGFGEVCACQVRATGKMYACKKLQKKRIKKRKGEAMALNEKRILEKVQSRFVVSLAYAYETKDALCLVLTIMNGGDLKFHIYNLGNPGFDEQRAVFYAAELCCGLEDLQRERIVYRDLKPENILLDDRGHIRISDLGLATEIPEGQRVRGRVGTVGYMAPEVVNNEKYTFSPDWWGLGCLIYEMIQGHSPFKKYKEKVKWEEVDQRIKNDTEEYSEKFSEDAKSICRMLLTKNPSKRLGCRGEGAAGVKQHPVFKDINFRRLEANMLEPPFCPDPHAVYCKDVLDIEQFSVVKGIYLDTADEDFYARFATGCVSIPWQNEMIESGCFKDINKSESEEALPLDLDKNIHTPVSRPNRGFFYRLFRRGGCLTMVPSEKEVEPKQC
Chain of Activin receptor type-1B (Homo sapiens) (P36896 whole entry, the tested form may be a part): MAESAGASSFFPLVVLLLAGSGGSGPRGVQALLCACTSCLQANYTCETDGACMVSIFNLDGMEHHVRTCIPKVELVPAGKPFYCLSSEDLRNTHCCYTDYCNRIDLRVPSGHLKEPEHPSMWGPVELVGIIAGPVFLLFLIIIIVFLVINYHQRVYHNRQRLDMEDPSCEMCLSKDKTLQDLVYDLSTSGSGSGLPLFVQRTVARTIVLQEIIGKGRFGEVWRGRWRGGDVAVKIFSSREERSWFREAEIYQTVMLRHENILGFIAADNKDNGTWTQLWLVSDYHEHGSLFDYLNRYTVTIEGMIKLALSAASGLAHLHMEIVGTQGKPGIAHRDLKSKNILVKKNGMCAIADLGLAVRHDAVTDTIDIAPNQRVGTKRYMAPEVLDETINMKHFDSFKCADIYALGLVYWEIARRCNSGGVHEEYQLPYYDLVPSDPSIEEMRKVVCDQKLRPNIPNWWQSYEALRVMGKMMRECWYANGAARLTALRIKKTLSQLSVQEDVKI
Chain of MAP kinase-activated protein kinase 2 (Homo sapiens) (P49137 whole entry, looked up, the tested form may be a part): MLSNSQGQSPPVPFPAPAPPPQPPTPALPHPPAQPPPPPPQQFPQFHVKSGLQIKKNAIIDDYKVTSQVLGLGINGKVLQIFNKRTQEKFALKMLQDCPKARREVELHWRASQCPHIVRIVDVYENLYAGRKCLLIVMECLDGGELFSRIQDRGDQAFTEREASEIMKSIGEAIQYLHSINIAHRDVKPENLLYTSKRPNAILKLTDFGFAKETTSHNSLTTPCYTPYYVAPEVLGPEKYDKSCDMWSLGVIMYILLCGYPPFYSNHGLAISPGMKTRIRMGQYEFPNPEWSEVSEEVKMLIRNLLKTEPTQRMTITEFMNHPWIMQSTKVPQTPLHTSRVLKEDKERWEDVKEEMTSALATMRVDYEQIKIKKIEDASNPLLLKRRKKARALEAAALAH
Chain of Uncharacterized serine/threonine-protein kinase SBK3 (Homo sapiens) (P0C264 whole entry, the tested form may be a part): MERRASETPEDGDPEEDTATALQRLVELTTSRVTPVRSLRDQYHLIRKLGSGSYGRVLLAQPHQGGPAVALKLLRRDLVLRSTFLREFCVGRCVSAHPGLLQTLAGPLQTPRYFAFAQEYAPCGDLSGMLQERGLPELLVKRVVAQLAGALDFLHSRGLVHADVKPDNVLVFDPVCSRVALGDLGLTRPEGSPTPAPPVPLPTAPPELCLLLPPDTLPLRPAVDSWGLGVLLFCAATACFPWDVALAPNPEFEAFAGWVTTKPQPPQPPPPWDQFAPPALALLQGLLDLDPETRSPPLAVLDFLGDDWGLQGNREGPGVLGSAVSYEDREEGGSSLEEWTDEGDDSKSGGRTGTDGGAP
Chain of Mitogen-activated protein kinase 15 (Homo sapiens) (Q8TD08 whole entry, the tested form may be a part): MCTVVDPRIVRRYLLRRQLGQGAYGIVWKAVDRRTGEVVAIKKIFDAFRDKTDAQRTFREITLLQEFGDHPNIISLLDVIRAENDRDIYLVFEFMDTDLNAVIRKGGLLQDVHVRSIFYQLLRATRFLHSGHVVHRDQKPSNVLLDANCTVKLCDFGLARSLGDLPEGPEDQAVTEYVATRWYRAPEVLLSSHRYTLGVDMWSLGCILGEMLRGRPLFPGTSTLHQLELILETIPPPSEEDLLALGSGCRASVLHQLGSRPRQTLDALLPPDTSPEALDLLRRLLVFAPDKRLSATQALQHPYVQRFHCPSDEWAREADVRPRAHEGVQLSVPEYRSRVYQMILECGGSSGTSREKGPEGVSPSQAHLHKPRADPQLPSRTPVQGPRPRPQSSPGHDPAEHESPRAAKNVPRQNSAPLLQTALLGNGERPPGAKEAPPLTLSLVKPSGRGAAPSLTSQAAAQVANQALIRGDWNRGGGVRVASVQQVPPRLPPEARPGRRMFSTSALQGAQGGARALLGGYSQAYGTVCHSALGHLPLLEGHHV

As to `COc1cc(N2CCC(N3CCN(C)CC3)CC2)ccc1Nc1ncc2c(n1)N(C)c1ccccc1C(=O)N2C`, the inhibition worked out at 46% in assay [1]; 100% in [2]; 100% in assay [5]; 55% in assay [7]; 38% in assay [8]; 100% in [10]. In addition, the inhibition in assay [11] is 100%; in assay [12] it was 85%; in [13] it was 47%; in assay [14], 100%; in [15], 100%; in [17] it was 15%. Moreover, the inhibition in [18] is 100%; in assay [19], 100%; in [20], 100%; in assay [22], 100%; in [24] it was 89%; in [25], 62%. The inhibition came out at 100% in assay [26] and 81% in assay [27]. The residual activity came out at 72% in assay [3]; 73% in assay [4]; 99% in [6]; 81% in assay [9]; 99% in assay [16]; 86% in assay [21]. Moreover, the residual activity in assay [23] is 83%; in assay [28], 16%.

For the molecule `CCOc1cc(C(=O)N2CCC(N3CCN(C)CC3)CC2)ccc1Nc1ncc2c(n1)N(C1CCCC1)c1ccccc1C(=O)N2C`, the inhibition entry in assay [29] was “inactive”.
